# Data from patent EP0760362B1, “DIAMINOMETHYLIDENE DERIVATIVE” (NISSHIN SEIFUN GROUP INC., priority 1994, dated 1995).
# System: longitudinal muscle sample (including myenteric plexus) prepared from the ileum
# Experiment: Acetylcholine-release promoting action: contraction of electrically stimulated ileal longitudinal muscle in Magnus' tube
# Parameters: species or system guinea pig
# Conditions: increase ratio in contraction by electrical stimulation, isometrically recorded
# Procedure: Acetylcholine-release promoting action of the present compounds in the gastrointestinal tract was investigated according to the following procedure. A longitudinal muscle sample (including myenteric plexus) was prepared from the ileum excised from guinea pig and suspended in Magnus' tube. This sample was perfused in a physiological salt solution and stimulated by the electric current via platinum electrodes. […] This contraction was isometrically recorded. Accordingly, the drug capable of accelerating the release of acetylcholine could enhance the contraction caused by electric stimulation only. Evaluation of the compounds was represented in terms of increase ratio in contraction by electrical stimulation. The tested compounds are shown in terms of the numbers of the corresponding Examples.
Compound,Contraction increase rate (%) (10^-5M),Contraction increase rate (%) (10^-7M)
"N#CC(C#N)=C(NCc1ccccc1)NCC1CN(Cc2ccc(F)cc2)CCO1 (centres unmarked) [Example 1, 2-Benzylamino-2-[4-(p-fluorobenzyl)-2-morpholinylmethylamino]-1,1-ethylenedicarbonitrile]",12.3,3.9
"N#CC(C#N)=C(NCC1CN(Cc2ccc(F)cc2)CCO1)NC1CCCCC1 (centres unmarked) [Example 2, 2-Cyclohexylamino-2-[4-(p-fluorobenzyl)-2-morpholinylmethylamino]-1,1-ethylenedicarbonitrile]",5.3,
"CC(C)CNC(NCC1CN(Cc2ccc(F)cc2)CCO1)=C(C#N)C#N (centres unmarked) [Example 5, 2-[4-(p-Fluorobenzyl)-2-morpholinylmethylamino]-2-isobutylamino-1,1-ethylenedicarbonitrile]",4.9,
"CCOC(=O)C(C#N)=C(NCc1ccccc1)NCC1CN(Cc2ccc(F)cc2)CCO1 (centres unmarked) [Example 6, Ethyl 3-benzylamino-3-[4-(p-fluorobenzyl)-2-morpholinylmethylamino]-2-cyanoacrylate]",20.3,3.0
"CCOC(=O)C(C#N)=C(NCC1CN(Cc2ccc(F)cc2)CCO1)Nc1ccccc1 (centres unmarked) [Example 7, Ethyl 3-[4-(p-fluorobenzyl)-2-morpholinylmethylamino]-3-phenylamino-2-cyanoacrylate]",,0.7
"CCOC(=O)C(C#N)=C(NCC(C)C)NCC1CN(Cc2ccc(F)cc2)CCO1 (centres unmarked) [Example 8, Ethyl 3-[4-(p-fluorobenzyl)-2-morpholinylmethylamino]-3-isobutylamino-2-cyanoacrylate]",32.4,8.5
"CCOC(=O)C(C#N)=C(NCC1CN(Cc2ccc(F)cc2)CCO1)NC1CCCCC1 (centres unmarked) [Example 9, Ethyl 3-cyclohexylamino-3-[4-(p-fluorobenzyl)-2-morpholinylmethylamino]-2-cyanoacrylate]",31.9,8.7
CCOC(=O)C(C#N)=C(NCC1CN(Cc2ccc(F)cc2)CCO1)Nc1ccc(OC)cc1 (centres unmarked) [Example 10],11.8,9.1
"CCOC(=O)C(C#N)=C(NCCOCCNCc1ccc(F)cc1)NC1CCCCC1 [Example 12, Ethyl 3-cyclohexylamino-3-[7-(p-fluorophenyl)-6-aza-3-oxaheptylamino]-2-cyanoacrylate]",7.9,0.8
"N#CC(C#N)=C(NCc1ccc(F)cc1)NCC1CN(Cc2ccc(F)cc2)CCO1 (centres unmarked) [Example 13, 2-(p-Fluorobenzylamino)-2-[4-(p-fluorobenzyl)-2-morpholinylmethylamino]-1,1-ethylenedicarbonitrile]",15.0,4.9
"CNC(NC1CC2COCC(C1)N2Cc1ccc(F)cc1)=C(C#N)C#N (stereo not drawn) [Example 15, 2-[endo-9-(p-Fluorobenzyl)-9-aza-3-oxabicyclo[3.3.1]non-7-ylamino]-2-methylamino-1,1-ethylenedicarbonitrile]",,3.9
"CNC(NC1CC2COCC(C1)N2CCCOc1ccc(F)cc1)=C(C#N)C#N (stereo not drawn) [Example 16, 2-[endo-9-[3-(p-Fluorophenoxy)propyl]-9-aza-3-oxabicyclo-[3.3.1]non-7-ylamino]-2-methylamino-1,1-ethylenedicarbonitrile]",,3.1
"CNC(=C[N+](=O)[O-])NC1CC2COCC(C1)N2Cc1ccc(F)cc1 (stereo not drawn) [Example 17, N-[endo-9-(p-Fluorobenzyl)-9-aza-3-oxabicyclo[3.3.1]non-7-yl]-N'-methyl-2-nitrovinylidene-1,1-diamine]",5.7,3.2
"CNC(=O)NCC1CN(Cc2ccc(F)cc2)CCO1 (centres unmarked) [Example 19, 1-[4-(p-Fluorobenzyl)-2-morpholinylmethyl]-3-methylurea]",,9.8
"CNC(=O)NC1CC2COCC(C1)N2Cc1ccc(F)cc1 (stereo not drawn) [Example 20, 1-[endo-9-(p-Fluorobenzyl)-9-aza-3-oxabicyclo[3.3.1]non-7-yl]-3-methylurea]",,4.2
